# Experimental data as given in USRE48461E1, “Modulation of androgen receptor expression” (Ionis Pharmaceuticals, Inc., priority 2012, dated 2021).
# Columns and labels:
# Assay type in all cases: cell-based, human
# LMR20 cells = test: Proliferation of MDV3100-resistant LMR20 cells (MTT; with R1881 or DHT); details: 5 days
# How it was run: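 Cells were held in phenol red-free medium with charcoal-stripped FBS and given antisense oligonucleotides plus 1 nM R1881 or 10 nM DHT from day 1. Proliferation was read by MTT after 5 days of treatment and reported as percent inhibition against non-treated cells.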
# PSA mRNA = test: PSA expression in C4-2 cells; details: 48 hrs; for Percent inhibition of PSA expression: C4-2 cells, CSS + DHT medium
# Method: Cells were plated at 1,000 cells per well. […] After an incubation period of 48 hrs, RNA levels of AR, PSA and TMPRSS2 were measured.
# Cells were plated at 2,000 cells per well and cultured in CSS media with 1 nM DHT. […] After an incubation period of 48 hrs, RNA levels of AR, PSA and TMPRSS2 were measured.
# cleaved PARP = test: Cleaved PARP western blot in VCaP cells
# AR V7 variant mRNA [1] = test: AR V7 variant RNA in 22RV1 cells; details: RNAiMax, 48 hrs
# TMPRSS2 mRNA [2] = test: TMPRSS2 expression in VCaP cells; details: RNAiMax, 48 hrs
# Method: Cells were plated at 10,000 cells per well. […] After an incubation period of 48 hrs, RNA levels of full length AR, the V7 variant, PSA and TMPRSS2 were measured.
# (§1) After an incubation period of 48 hrs, RNA levels of full length AR, the V7 variant, PSA and TMPRSS2 were measured. The data is presented in Tables 108 expressed as percent expression of gene levels compared to the untreated control.
# Cells were plated at 15,000 cells per well and cultured in CSS media for 16 hours. […] After 4 hrs, 1 nM DHT was added. […] After an incubation period of 48 hrs, RNA levels of AR, PSA and TMPRSS2 were measured.
# TMPRSS2 mRNA [3] = test: TMPRSS2 expression in 22RV1 cells; details: RNAiMax, 48 hrs
# Method: (§2) Cells were plated at 1,000 cells per well. […] After an incubation period of 48 hrs, RNA levels of full length AR, the V7 variant, PSA and TMPRSS2 were measured.
# (§3) After an incubation period of 48 hrs, RNA levels of full length AR, the V7 variant, PSA and TMPRSS2 were measured.
# (§4) Cells were plated at 2,000 cells per well and cultured in CSS media for 16 hours. […] After 4 hrs, 1 nM DHT was added. […] After an incubation period of 48 hrs, RNA levels of AR, AR V7 variant, PSA and TMPRSS2 were measured.
# AR V7 variant mRNA [4] = test: AR V7 variant RNA in VCaP cells; details: RNAiMax, 48 hrs
# Method: Cells were plated at 10,000 cells per well. […] ISIS 549148 was included as a negative control. After an incubation period of 48 hrs, RNA levels of full length AR, the V7 variant, PSA and TMPRSS2 were measured.
# as §1, with “A separate set of cells was treated with MDV-3100 at 0.04 μM, 0.2 μM, 1.0 μM, or 5.0 μM. After” for “After”
# Cells were plated at 15,000 cells per well and cultured in CSS media for 16 hours. […] ISIS 549148 was included as a negative control. After 4 hrs, 1 nM DHT was added. […] After an incubation period of 48 hrs, RNA levels of AR, PSA and TMPRSS2 were measured. […]
# full length AR mRNA = test: Full-length AR RNA in 22RV1 cells (complete, CSS+DHT medium); details: RNAiMax, 48 hrs
# Method: as §2, §3, §4
sequence,measurement,setting,value
"TGATTTAATGGTTGCA [ISIS 569236] (cEt/MOE gapmer chemistry, further chemistry not given here) [targets intron 1]",Percent inhibition of LMR20 cell proliferation,"LMR20 cells; CSS + DHT, ASO 0.04 μM",0%
same,Percent inhibition of LMR20 cell proliferation,"LMR20 cells; CSS + DHT, ASO 0.20 μM",10%
same,Percent inhibition of LMR20 cell proliferation,"LMR20 cells; CSS + DHT, ASO 1.0 μM",32%
same,Percent inhibition of LMR20 cell proliferation,"LMR20 cells; CSS + DHT, ASO 5.0 μM",57%
same,Percent inhibition of LMR20 cell proliferation,"LMR20 cells; CSS + R1881, ASO 0.04 μM",0%
same,Percent inhibition of LMR20 cell proliferation,"LMR20 cells; CSS + R1881, ASO 0.20 μM",2%
same,Percent inhibition of LMR20 cell proliferation,"LMR20 cells; CSS + R1881, ASO 1.0 μM",34%
same,Percent inhibition of LMR20 cell proliferation,"LMR20 cells; CSS + R1881, ASO 5.0 μM",61%
same,Percent inhibition of LMR20 cell proliferation,"LMR20 cells; CSS, ASO 0.04 μM",0%
same,Percent inhibition of LMR20 cell proliferation,"LMR20 cells; CSS, ASO 0.20 μM",10%
same,Percent inhibition of LMR20 cell proliferation,"LMR20 cells; CSS, ASO 1.0 μM",0%
same,Percent inhibition of LMR20 cell proliferation,"LMR20 cells; CSS, ASO 5.0 μM",12%
same,LMR20 cell proliferation,"LMR20 cells; in the presence of R1881 or DHT, 0.04-5.0 μM",significantly inhibited MDV3100-resistant prostate cancer cell proliferation in a dose dependent manner more extensively than ISIS 554221
same,Percent inhibition of PSA expression,PSA mRNA; 0.04 μM,0%
same,Percent inhibition of PSA expression,PSA mRNA; 0.2 μM,4%
same,Percent inhibition of PSA expression,PSA mRNA; 1 μM,57%
same,Percent inhibition of PSA expression,PSA mRNA; 5.0 μM,64%
same,Percent inhibition of PSA expression in C4-2 cells cultured in complete medium,PSA mRNA; 0.04 μM,35%
same,Percent inhibition of PSA expression in C4-2 cells cultured in complete medium,PSA mRNA; 0.2 μM,62%
same,Percent inhibition of PSA expression in C4-2 cells cultured in complete medium,PSA mRNA; 1 μM,83%
same,Percent inhibition of PSA expression in C4-2 cells cultured in complete medium,PSA mRNA; 5.0 μM,88%
same,cleaved PARP levels (western blot),cleaved PARP,increased in a dose-dependent manner
same,Percent inhibition of AR V7 variant,"AR V7 variant mRNA [1]; CSS + DHT medium, 1.34 nM",54%
same,Percent inhibition of AR V7 variant,"AR V7 variant mRNA [1]; CSS + DHT medium, 4.0 nM",88%
same,Percent inhibition of AR V7 variant,"AR V7 variant mRNA [1]; CSS + DHT medium, 13.4 nM",97%
same,Percent inhibition of AR V7 variant,"AR V7 variant mRNA [1]; complete medium, 1.34 nM",30%
same,Percent inhibition of AR V7 variant,"AR V7 variant mRNA [1]; complete medium, 4.0 nM",2%
same,Percent inhibition of AR V7 variant,"AR V7 variant mRNA [1]; complete medium, 13.4 nM",46%
same,Percent inhibition of AR V7 variant,"AR V7 variant mRNA [1]; complete medium, 40 nM",81%
same,Percent inhibition of TMPRSS2 expression,"TMPRSS2 mRNA [2]; CSS + DHT medium, 1.34 nM",6%
same,Percent inhibition of TMPRSS2 expression,"TMPRSS2 mRNA [2]; CSS + DHT medium, 4.0 nM",19%
same,Percent inhibition of TMPRSS2 expression,"TMPRSS2 mRNA [2]; CSS + DHT medium, 13.4 nM",40%
same,Percent inhibition of TMPRSS2 expression,"TMPRSS2 mRNA [2]; CSS + DHT medium, 40 nM",54%
same,Percent inhibition of TMPRSS2 expression,"TMPRSS2 mRNA [2]; complete medium, 1.34 nM",0%
same,Percent inhibition of TMPRSS2 expression,"TMPRSS2 mRNA [2]; complete medium, 4.0 nM",0%
same,Percent inhibition of TMPRSS2 expression,"TMPRSS2 mRNA [2]; complete medium, 13.4 nM",0%
same,Percent inhibition of TMPRSS2 expression,"TMPRSS2 mRNA [2]; complete medium, 40 nM",36%
same,Percent inhibition of TMPRSS2 expression,"TMPRSS2 mRNA [3]; CSS + DHT medium, 1.34 nM",27%
same,Percent inhibition of TMPRSS2 expression,"TMPRSS2 mRNA [3]; CSS + DHT medium, 4.0 nM",50%
same,Percent inhibition of TMPRSS2 expression,"TMPRSS2 mRNA [3]; CSS + DHT medium, 13.4 nM",75%
same,Percent inhibition of TMPRSS2 expression,"TMPRSS2 mRNA [3]; complete medium, 1.34 nM",0%
same,Percent inhibition of TMPRSS2 expression,"TMPRSS2 mRNA [3]; complete medium, 4.0 nM",13%
same,Percent inhibition of TMPRSS2 expression,"TMPRSS2 mRNA [3]; complete medium, 13.4 nM",21%
same,Percent inhibition of TMPRSS2 expression,"TMPRSS2 mRNA [3]; complete medium, 40 nM",36%
same,Percent inhibition of AR V7 variant,"AR V7 variant mRNA [4]; CSS + DHT medium, 1.34 nM",37%
same,Percent inhibition of AR V7 variant,"AR V7 variant mRNA [4]; CSS + DHT medium, 4.0 nM",33%
same,Percent inhibition of AR V7 variant,"AR V7 variant mRNA [4]; CSS + DHT medium, 13.4 nM",48%
same,Percent inhibition of AR V7 variant,"AR V7 variant mRNA [4]; CSS + DHT medium, 40 nM",39%
same,Percent inhibition of AR V7 variant,"AR V7 variant mRNA [4]; complete medium, 1.34 nM",0%
same,Percent inhibition of AR V7 variant,"AR V7 variant mRNA [4]; complete medium, 4.0 nM",40%
same,Percent inhibition of AR V7 variant,"AR V7 variant mRNA [4]; complete medium, 13.4 nM",53%
same,Percent inhibition of AR V7 variant,"AR V7 variant mRNA [4]; complete medium, 40 nM",80%
same,Percent inhibition of full-length AR,"full length AR mRNA; CSS + DHT medium, 1.34 nM",59%
same,Percent inhibition of full-length AR,"full length AR mRNA; CSS + DHT medium, 4.0 nM",89%
same,Percent inhibition of full-length AR,"full length AR mRNA; CSS + DHT medium, 13.4 nM",97%
same,Percent inhibition of full-length AR,"full length AR mRNA; complete medium, 1.34 nM",17%
same,Percent inhibition of full-length AR,"full length AR mRNA; complete medium, 4.0 nM",15%
same,Percent inhibition of full-length AR,"full length AR mRNA; complete medium, 13.4 nM",37%
same,Percent inhibition of full-length AR,"full length AR mRNA; complete medium, 40 nM",71%
